Results as given in patent publication US10174384B2, “Use of the ZMIZ1 marker in directing treatment and predicting survival in cancer” (THE JOHNS HOPKINS UNIVERSITY, priority 2015, dated 2019).

System: U251 cell line
Test: Cell titer glo viability, siRNA combined with temozolamide
Assay type: cell-based
Settings: three days post treatment, combined with 1 mM temozolamide, p<0.0001 vs siRNA alone, P<0.01 vs temozolamide alone
Source text: siRNA s32836 targeting both the full ZMIZ1 transcript (uc001kaf.2) and the truncated ZMIZ1 transcript (uc001kag.2) was purchased from Life Technologies (Grand Island, N.Y., USA), and two custom designed Stealth siRNAs (referred to as 56 and 62) targeting specifically uc001kag.2 were designed (Life Technologies) for all in vitro assays. The sequence of stealth_56 is Sense: […] (SEQ ID NO:23), Anti-Sense: […] (SEQ ID NO:24), the sequence for stealth_62 is Sense: […] (SEQ ID NO:25), Anti-Sense: […] (SEQ ID NO:26). Appropriate scrambled siRNAs were used as controls. Hyper-expressing plasmids were designed for both the full and the truncated plasmids. Appropriate empty vector was used as control for all in vitro assays described. Cells were transfected using Lipofectamine 2000 and the respective siRNA or plasmid and were treated for 6 h. The media was changed after 6 h and the regular culture media was subsequently used.
U87 and U251 GBM cell lines were treated with varying doses of temozolamide (Sigma Aldrich, St Louis, Mo.). 1000 cells/well were seeded in a 96 well plate. […] Cells were followed for 3 days, and at the third day, viability was assessed with the cell titer glo assay.

Substance: 56 siRNA: custom designed Stealth siRNA targeting specifically uc001kag.2; Sense SEQ ID NO:23, Anti-Sense SEQ ID NO:24 (sense CCGGUGCAACUUCUAGCCUUGUUGU; antisense ACAACAAGGCUAGAAGUUGCACCGG; Stealth siRNA, chemical modification pattern not given here)
- viability, combination compared to siRNA alone or temozolamide alone: statistically significant decrease in viability
